Data as given in the supplement of paper PMC8671470.

What was measured:
Experiment in all cases: cell viability (% survival relative to DMSO control, bortezomib = 0%); higher = less cytotoxic
Settings in all cases: 72 h
ML-2 = tested on: ML-2
Method in brief: (§1)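 Reported values are percent survival from duplicate wells, averaged. Fifteen myeloid leukaemia cell lines were treated in 384-well plates with compounds at 1, 10, 100, 1000 or 10000 nM for 72 h at 37 °C in 5% CO2. Signals from CellTiter-Glo luminescence were scaled with vehicle as 100% and a 10 µM positive control as 0%.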

BV-173 = tested on: BV-173
Method in brief: as §1

K-562 = tested on: K-562
Method in brief: as §1

HL-60 = tested on: HL-60
Method in brief: as §1

SMILES | cell viability (ML-2; 1 nM) [%] | cell viability (ML-2; 10 nM) [%] | cell viability (ML-2; 100 nM) [%] | cell viability (ML-2; 1000 nM) [%] | cell viability (ML-2; 10000 nM) [%] | cell viability (BV-173; 1 nM) [%] | cell viability (BV-173; 10 nM) [%] | cell viability (BV-173; 100 nM) [%] | cell viability (BV-173; 1000 nM) [%] | cell viability (BV-173; 10000 nM) [%] | cell viability (K-562; 1 nM) [%] | cell viability (K-562; 10 nM) [%] | cell viability (K-562; 100 nM) [%] | cell viability (K-562; 1000 nM) [%] | cell viability (K-562; 10000 nM) [%] | cell viability (HL-60; 1 nM) [%] | cell viability (HL-60; 10 nM) [%] | cell viability (HL-60; 100 nM) [%] | cell viability (HL-60; 1000 nM) [%] | cell viability (HL-60; 10000 nM) [%]
Sc1ncnc2nc[nH]c12 [6-mercaptopurine] | 111 | 91.3 | 87.9 | 56.1 | 13.5 | 103 | 93.8 | 86.8 | 38.8 | 12.3 | 110 | 88.9 | 102 | 39.9 | 8.69 | 144 | 85.8 | 118 | 54.7 | 15.2
O=c1c2ccccc2[se]n1-c1ccccc1 [Ebselen] | 95.6 | 96.7 | 96.1 | 96.9 | 82 | 90.5 | 101 | 84.4 | 106 | 83.8 | 96.6 | 102 | 91 | 90.5 | 72.3 | 107 | 94.8 | 102 | 95.6 | 77.6
CN(C/C=C/C#CC(C)(C)C)Cc1cccc2ccccc12 [Terbinafine] | 102 | 101 | 92.2 | 108 | 90.3 | 113 | 92 | 93.3 | 96.1 | 85.3 | 97.8 | 98 | 106 | 86.1 | 88.8 | 104 | 107 | 118 | 105 | 93.8
OCCN1CCN(CCCN2c3ccccc3Sc3ccc(Cl)cc32)CC1 [Perphenazine] | 99.6 | 95.4 | 96.6 | 101 | 34.4 | 127 | 97.3 | 89.9 | 117 | 23.2 | 108 | 97.3 | 81.8 | 92 | 0.308 | 97.8 | 133 | 92 | 103 | 18.8
O=C(c1ccc(OCCN2CCCCC2)cc1)c1c(-c2ccc(O)cc2)sc2cc(O)ccc12 [Raloxifene] | 101 | 91.2 | 101 | 96.9 | 82.9 | 93 | 95.9 | 98.2 | 107 | 92.7 | 99.7 | 99.3 | 98.5 | 98.8 | 77.3 | 99.3 | 90.6 | 99.8 | 110 | 62.1
Cc1ccc(S(=O)(=O)NC2c3ccccc3Oc3ccccc32)cc1 [AH-7614] | 97.3 | 99.2 | 104 | 104 | 114 | 87.1 | 91.2 | 102 | 98.4 | 104 | 92 | 95.9 | 89.9 | 98.1 | 76.4 | 103 | 112 | 87.8 | 94.5 | 86.2
C[C@]12O[C@H](C[C@]1(O)CO)n1c3ccccc3c3c4c(c5c6ccccc6n2c5c31)CNC4=O [Lestaurtinib] | 107 | 84.4 | 61.4 | 9.84 | 0.0251 | 93.9 | 65.2 | 28.2 | 22.5 | -0.238 | 94.2 | 94.3 | 64.5 | 13.5 | 2.74 | 91.8 | 77.6 | 44.5 | 17.5 | 0.00654
O=C(O)C(S)=Cc1c[nH]c2ccc(F)cc12 | 101 | 98.6 | 113 | 111 | 91.5 | 97.4 | 98.1 | 85.1 | 97.7 | 88 | 91 | 95.7 | 90.1 | 116 | 85.9 | 98.3 | 103 | 111 | 66.7 | 90.7
O=C(O)CC[C@H](NC(=O)c1ccc([N+](=O)[O-])cc1)C(=O)O [(S)-2-(4-Nitrobenzamido)pentanedioic acid] | 103 | 91.2 | 101 | 93.7 | 95.4 | 96.2 | 108 | 92.8 | 104 | 80.7 | 76.6 | 91.8 | 84.6 | 102 | 110 | 78 | 107 | 113 | 83.6 | 93.7
CC(/C=C1\SC(=S)N(CC(=O)O)C1=O)=C\c1ccccc1 [Epalrestat] | 99.7 | 101 | 99.8 | 104 | 112 | 101 | 95.1 | 96.7 | 106 | 112 | 114 | 102 | 109 | 99.5 | 100 | 120 | 102 | 109 | 112 | 115
O=C(O)CCc1ccc(NCc2cccc(Oc3ccccc3)c2)cc1 [GW9508] | 84.3 | 103 | 95.8 | 112 | 103 | 92.9 | 112 | 97.1 | 124 | 135 | 109 | 88.8 | 100 | 94.2 | 120 | 90 | 94.3 | 104 | 103 | 83.5
O=P(O)(O)C(O)(Cn1ccnc1)P(=O)(O)O [Zoledronic acid] | 80.5 | 94.9 | 92.6 | 105 | 102 | 101 | 109 | 88.8 | 97 | 99 | 105 | 101 | 106 | 98.6 | 102 | 84.3 | 111 | 105 | 98.3 | 111
COc1cc2c(NC3CCN(C)CC3)nc(N3CCCN(C)CC3)nc2cc1OCCCN(C)C [UNC0224] | 94 | 111 | 95 | 99.6 | 97.2 | 109 | 117 | 103 | 91.6 | 83.3 | 95 | 106 | 102 | 102 | 88.8 | 92.3 | 123 | 97.8 | 89.5 | 65.1
C=CCc1ccc2c(c1O)C(=O)c1ccccc1C2=O [R162] | 99.4 | 99.2 | 97.8 | 101 | 90.8 | 101 | 97 | 89.9 | 125 | 118 | 99.5 | 95.2 | 94 | 118 | 98.5 | 98.1 | 104 | 95.6 | 92.5 | 101
C1CCC(C(CC2CCCCN2)C2CCCCC2)CC1.O=C(O)/C=C\C(=O)O (stereo not given) [Perhexiline] | 76.3 | 87.2 | 89.7 | 92.8 | 0.081 | 87.1 | 96.1 | 93.8 | 98.9 | 0.141 | 98.5 | 97.3 | 110 | 103 | 0.792 | 91.2 | 90.1 | 110 | 93 | -0.124
Nc1ccn([C@@H]2O[C@H](CO)[C@@H](O)[C@@H]2O)c(=O)n1 [Cytarabine] | 106 | 98.5 | 32 | 0.0645 | 1.39 | 102 | 16.4 | 0.292 | -1.03 | 0.0249 | 104 | 70 | 57.6 | 32.4 | 24.4 | 100 | 95.1 | 82.3 | 28 | 0.475
NC(=O)c1ncn([C@@H]2O[C@H](CO)[C@@H](O)[C@H]2O)n1 [Ribavirin] | 95.4 | 103 | 97.7 | 94.3 | 111 | 93.7 | 106 | 112 | 101 | 91.4 | 82.4 | 95.1 | 119 | 107 | 103 | 92.6 | 101 | 130 | 110 | 149
Oc1cc(Cl)ccc1Oc1ccc(Cl)cc1Cl [Triclosan] | 101 | 104 | 102 | 114 | 93.5 | 98 | 120 | 107 | 98.4 | 105 | 103 | 105 | 93.8 | 106 | 66.6 | 90.3 | 76.6 | 85.1 | 106 | 102
O=C1Oc2ccccc2C(=O)C1CC1C(=O)Oc2ccccc2C1=O (stereo not given) [Dicumarol] | 93.8 | 91.9 | 99.2 | 104 | 95.4 | 89.5 | 107 | 91.8 | 94.1 | 109 | 95.1 | 106 | 97.2 | 100 | 95.8 | 98.3 | 102 | 101 | 104 | 112
CC(C)Cc1sc(N)nc1-c1ccc(P(=O)(O)O)o1 | 98.1 | 108 | 105 | 103 | 92.7 | 85.3 | 111 | 102 | 95.2 | 86.7 | 104 | 118 | 109 | 103 | 92.5 | 56.2 | 90.1 | 72.8 | 105 | 67
CN(C)c1nc(O)c2[nH]cnc2n1 [2-Dimethylamino-6-hydroxypurine] | 97.7 | 89.6 | 95.3 | 107 | 94.5 | 104 | 93 | 93.5 | 121 | 93.9 | 108 | 89.2 | 92.2 | 117 | 92 | 103 | 81.4 | 79.9 | 110 | 90.1
COc1c(C)c2c(c(O)c1C/C=C(\C)CCC(=O)O)C(=O)OC2 [Mycophenolic acid] | 116 | 105 | 86.5 | 22.7 | 8.02 | 104 | 98.8 | 115 | 29.9 | -0.741 | 91.3 | 102 | 91.5 | 36.5 | 13.6 | 108 | 117 | 80 | 51.3 | 18.4
O=C(O)C(Cl)Cl [Dichloroacetate] | 91.7 | 102 | 103 | 95.8 | 103 | 96.9 | 91 | 103 | 95.7 | 93.9 | 96.5 | 108 | 93 | 96.2 | 105 | 96.5 | 115 | 104 | 109 | 120
O=C(O)c1cc2sccc2[nH]1 [4H-thieno[3,2-b]pyrrole-5-carboxylic acid] | 105 | 96.6 | 84.2 | 99.1 | 113 | 104 | 102 | 102 | 99.1 | 100 | 86.6 | 106 | 101 | 101 | 105 | 117 | 104 | 90.6 | 69.1 | 95.3
CCOc1ccc(Cc2cc([C@@H]3O[C@H](CO)[C@@H](O)[C@H](O)[C@H]3O)ccc2Cl)cc1 [Dapagliflozin] | 84.8 | 111 | 85.1 | 108 | 105 | 74.5 | 106 | 87 | 98.2 | 82 | 98.9 | 108 | 81.4 | 101 | 94.6 | 101 | 86.8 | 81.3 | 94.4 | 104
CCN(CC)CCN(Cc1ccc(-c2ccc(C(F)(F)F)cc2)cc1)C(=O)Cn1c(SCc2ccc(F)cc2)nc(=O)c2c1CCC2 [Darapladib] | 102 | 98.2 | 88.9 | 88.8 | -0.43 | 100 | 88.7 | 94.3 | 79.1 | -0.184 | 99.1 | 122 | 81.6 | 73.6 | -0.273 | 101 | 95.7 | 101 | 81.9 | -0.402
Nc1ncnc2c1ncn2[C@@H]1O[C@H](CSCC[C@H](N)C(=O)O)[C@@H](O)[C@H]1O [S-Adenosyl Homocysteine] | 102 | 102 | 101 | 107 | 103 | 98.5 | 83.9 | 99.1 | 104 | 104 | 102 | 104 | 105 | 104 | 98.8 | 103 | 101 | 115 | 111 | 74.9
